Data as given in US20120214186A1, “METHODS AND COMPOSITIONS FOR DETECTING AND QUANTIFYING sAPPbeta” (priority 2006, published 2012).

Experiments:
[1] = system: SY5Y-BACEGFP-SEAPAPPwt stable cells; details: at concentrations used; data not shown
BACE1 [2] = molecular target: T1, BACE1 (Homo sapiens, UniProt P56817); assay: Cell-based BACE1 assay (sAPPβ ELISA-SEAP), SY5Y-BACEGFP-SEAPAPPwt stable cells; details: 6 hours, 96-well; TAPI-2 100 mM, BACE inhibitor IV 5 mM, AEBSF 500 mM, Cpd E 20 nM
T1 construct: expressed in transfected cells
T1 sequence (P56817 46-501): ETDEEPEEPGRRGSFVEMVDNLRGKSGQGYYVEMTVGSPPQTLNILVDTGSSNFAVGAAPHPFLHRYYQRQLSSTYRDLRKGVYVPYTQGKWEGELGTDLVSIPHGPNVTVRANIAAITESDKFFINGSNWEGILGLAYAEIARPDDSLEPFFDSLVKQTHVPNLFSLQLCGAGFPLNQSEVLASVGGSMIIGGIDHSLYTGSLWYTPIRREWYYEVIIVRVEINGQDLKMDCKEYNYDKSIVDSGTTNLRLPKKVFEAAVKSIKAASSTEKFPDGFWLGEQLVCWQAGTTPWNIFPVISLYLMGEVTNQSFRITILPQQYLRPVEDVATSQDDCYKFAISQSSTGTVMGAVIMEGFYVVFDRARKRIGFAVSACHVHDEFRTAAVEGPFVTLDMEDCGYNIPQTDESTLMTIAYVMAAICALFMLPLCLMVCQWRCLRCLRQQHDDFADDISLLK
Experimental: […] cells expressing BACEGFP and SEAPAPPwt were grown on standard cell culture plates in DMEM (Invitrogen) supplemented with 10% fetal bovine serum, 1% Pen/Strep/Glutamine, and 250 μg/ml zeocin. SEAPAPPwt is cleaved by BACE1 (β-secretase) as well as a secretase to release large extracellular fragments sAPPβ and sAPPα, respectively. Cell culture media containing these fragments was harvested and SEAP-sAPPβ was captured using 96-well plates coated with the sAPPβ specific antibody (sβwt). The ELISA plate was then incubated with the fluorescent alkaline phosphatase substrate 4-MUP (Sigma) at a final concentration of 30 μM (in 100 mM glycine, 1 mM MgCl2, 1 mM ZnCl2 at pH 9.8) for 1 hour before detection (excitation: 360 nm, emission: 449 nm).
SY5Y-BACEGFP-SEAPAPPwt stable cells were grown to 100% confluence on 96-well plates in quadruplicate and incubated for 6 hours with DMSO, TAPI-2 ([…]), RACE inhibitor IV ([…]), AEBSF ([…]), or Cpd E (20 nM) in […] of conditioned media (DMEM (invitrogen) supplemented with 10% fetal bovine serum, 1% Pen/Strep/Glutamine, and 250 μg/ml zeocin).
A sAPPβ ELISA-SEAR assay was conducted using […] of media.
Media was collected after 6 hrs incubation and […] was used in the BACE1 assay as described above.

HEK293-APPNFEV cells = details: read-out: reported IC50; cited from earlier work
[3] = p-glycoprotein inhibitor required to increase transport; cited from earlier work
BACE1 [4] = molecular target: T2, BACE1 (Mus musculus, UniProt P56818); details: mouse model of AD; cited from earlier work
T2 construct: host or cells: mouse model of AD
T2 sequence (P56818 46-501): as the sequence (P56817 46-501) above, with P6S, V162I, L165I, S180T, V182A, I340V, L393A, Q443H counted along it

Structure (SMILES) | cellular toxicity [1] | effect on sAPPβ (BACE1 [2]) | also measured
NCCc1ccc(S(=O)(=O)F)cc1 [AEBSF] | do not exhibit significant cellular toxicity | dramatically reduced | 
C[C@@H](NC(=O)c1cc(C(=O)N[C@@H](Cc2ccccc2)[C@H](O)CNC2CC2)cc(N(C)S(C)(=O)=O)c1)c1ccccc1 [BACE inhibitor IV] | do not exhibit significant cellular toxicity |  | IC50 (HEK293-APPNFEV cells): 29 nM
C[C@H](NC(=O)Cc1cc(F)cc(F)c1)C(=O)N[C@H]1N=C(c2ccccc2)c2ccccc2N(C)C1=O [CpdE] |  | no effect | 
CCNc1cc(C(=O)N[C@@H](Cc2ccccc2)[C@H](O)CNCc2cccc(C(F)(F)F)c2)c(F)c(N2CCCCS2(=O)=O)c1 [GSK188909] |  |  | brain penetration [3]: low brain penetration; in vivo efficacy (BACE1 [4]): in vivo efficacy
CC(C)C[C@H](CC(=O)NO)C(=O)N[C@H](C(=O)N[C@@H](C)C(=O)NCCN)C(C)(C)C [TAPI-2] |  | no effect | 
